In patent publication US20240279191A1, “SMALL MOLECULE INHIBITORS OF TEAD-YAP” (The General Hospital Corporation, priority 2021, published 2024):
pIC50: −log10 of the molar value.

Columns and labels:
Myc-TEAD1 = Myc-TEAD1 (Homo sapiens, UniProt P28347); test: Inhibition of Myc-TEAD1 palmitoylation in HEK293A cells; format: cell-based; settings: 24 h, dose-dependent, FIG. 2C
Description: HEK293A cells were seeded in 6 cm dishes overnight and transfected with plasmids using PEI reagent (1 μg/μL). Briefly, PRK5-Myc-TEAD1 (33109, Addgene) and PEI were diluted in serum-free DMEM medium in two tubes (DNA: PEI ratio=1:2). After standing still for 5 mins, mix them well and stay for another 20 mins. The mixture was then added to dishes directly.
HEK293A cells with or without TEAD overexpression were pretreated with DMSO or TM2 in medium with 10% dialyzed fetal bovine serum (DFBS) for 8 h and labeled by Alkynyl Palmitic acid (1165, Click Chemistry Tools) for another 16 h. The cells were then washed and harvested by cold DPBS (14190250, Life Technologies). The cell pellets were isolated by centrifugation (500×g, 10 min) and lysed by TEA lysis buffer (50 mM TEA-HCl, pH 7.4, 150 mM NaCl, 1% Triton X-100, 0.2% SDS, 1×Protease inhibitor-EDTA free cocktail (05892791001, Roche), phosphatase inhibitor cocktail (P0044, Sigma-Aldrich)) on ice for 30 mins. The protein concentration was determined using Bio-Rad assay and adjusted to 1 mg/mL. 100 μL of protein sample mixture was treated with 10 μL of freshly prepared “click” mixture containing 1 mM TBTA, 10 mM TCEP, 10 mM CuSO4, 1 mM TBTA Biotin-Azide and incubated for 1 h at room temperature. […] The bound proteins were eluted with a buffer containing 10 mM EDTA pH 8.2 and 95% formamide and analyzed with SDS-PAGE. […]

[1] = test system: TEAD-YAP target genes (CTGF, Cyr61, ANKRD1); test: Quantitative RT-PCR of TEAD-YAP target genes in H226 cells; format: cell-based, Human
Description: […] The high-capacity cDNA reverse transcription kit (4368814, Life Technologies) was employed to obtain cDNA. Target genes expression (Cyr61, CTGF and ANKRD1) was measured with PowerUp SYB Green Master Mix kit (A25777, Life Technologies). β-actin was used as reference gene. The primers are shown below:

[2] = test system: YAP/TAZ-TEAD direct target genes; test: RNA-seq analysis in H226 cells; format: cell-based, Human; settings: 1 μM TM2, versus K975 in H226 xenograft tumors (GSE156912), FIG. 7
Description: The NCI-H226 cells were treated with TM2 at 1 μM for 24 hours. Total RNA was isolated with RNeasy Mini Kit (74104, Qiagen). The integrity of isolated RNA was analyzed using Bioanalyzer (Agilent Technologies). and the RNA-seq libraries were made by Novogene. All libraries have at least 50 million reads sequenced (150 bp paired-end). The heatmaps were generated using different expressed genes from TM2 treatment in NCI-H226 cells with Motpheus (https://software.broadinstitute.org/morpheus/). Principle component analysis (PCA) was determined by PCA function in M3C package in R. Gene Set Enrichment Analysis (GSEA) was performed using GSEA software from Broad Institute (http://software.broadinstitute.org/gsea/index.jsp). The YAP_TAZ-TEAD Direct Target Genes set were generated with the published YAP/TAZ-TEAD target genes (Zanconato et al., 2015).

[3] = test system: Mouse hepatic progenitor organoids; test: Immunofluorescence staining of Ki67 in organoids; format: cell-based; settings: 40 nM, 3D culture
Description: Organoids were plated in 8 well chamber slide and fixed in 4% paraformaldehyde at 4° C. for 1h. After permeabilization in 0.5% PBST, organoids were blocked with 2% BSA for 2 h and incubated with primary antibody overnight at […]. Imaging was performed on Nikon A1RHD25 confocal microscope.

HCT116 cells [4] = test: Drug combination matrix TM2 + Trametinib, HCT116; format: cell-based, Human; settings: 5 doses TM2 x 9 doses trametinib, day 5, Bliss, FIG. 10
Description: (§1) The drug combination experiments were preformed using a drug combination matrix across 5 doses of TM2 (5 μM, 3-fold dilution) and 9 doses of Trametinib (10 μM, 3-fold dilution) in different tumor cell lines. Cell viability was determined at day 5 after the drugs administration by MTT. Drug synergy score was calculated followed Bliss rule. Synergy Score and Plot was generated by “Synergyfinder” package in R language.

DLD1 cells [5] = test: Drug combination matrix TM2 + Trametinib, DLD1; format: cell-based, Human; settings: 5 doses TM2 x 9 doses trametinib, day 5, Bliss, FIG. 8E
Description: as §1

DHODH(H) = DHODH(H) (Homo sapiens, UniProt Q02127); test: DHODH(H) (Table F1); settings: three values in one cell
DHODH(H), sequence (Q02127 whole entry): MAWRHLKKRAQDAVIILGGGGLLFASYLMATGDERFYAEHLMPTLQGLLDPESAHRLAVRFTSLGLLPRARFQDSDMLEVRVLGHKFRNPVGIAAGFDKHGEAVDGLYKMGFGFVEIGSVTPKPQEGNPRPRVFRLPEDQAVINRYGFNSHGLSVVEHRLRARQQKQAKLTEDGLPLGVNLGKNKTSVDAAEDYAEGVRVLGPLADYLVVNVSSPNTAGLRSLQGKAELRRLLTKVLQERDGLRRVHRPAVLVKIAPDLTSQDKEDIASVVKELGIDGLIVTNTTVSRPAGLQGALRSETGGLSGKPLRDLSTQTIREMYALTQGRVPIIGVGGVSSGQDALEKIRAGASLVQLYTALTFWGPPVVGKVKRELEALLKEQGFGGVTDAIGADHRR

H226 = H226 growth inhibition (SAR tables); format: cell-based; settings: Homo sapiens, NCI-H226
HCC95 = HCC95 growth inhibition (SAR tables); format: cell-based
Metabolic stability HLM = format: in vitro ADME, human
logD 7.4 = settings: pH 7.4
H226 cells = test: Cell proliferation assay (MTT), H226; settings: Homo sapiens, NCI-H226, 144 h, read-out: IC50 H226 cell proliferation
DLD1 cells [6] = test: Cell proliferation assay (MTT), DLD1; settings: CRC cell line, FIG. 8D
HCT116 cells [7] = test: Cell proliferation assay (MTT), HCT116; settings: CRC cell line, FIG. 8D
NCI-H2052 cells = test: Cell proliferation assay (MTT), NCI-H2052; settings: Homo sapiens, NCI-H2052, read-out: IC50 NCI-H2052 cell proliferation

Myc-TEAD1, sequence (P28347 whole entry): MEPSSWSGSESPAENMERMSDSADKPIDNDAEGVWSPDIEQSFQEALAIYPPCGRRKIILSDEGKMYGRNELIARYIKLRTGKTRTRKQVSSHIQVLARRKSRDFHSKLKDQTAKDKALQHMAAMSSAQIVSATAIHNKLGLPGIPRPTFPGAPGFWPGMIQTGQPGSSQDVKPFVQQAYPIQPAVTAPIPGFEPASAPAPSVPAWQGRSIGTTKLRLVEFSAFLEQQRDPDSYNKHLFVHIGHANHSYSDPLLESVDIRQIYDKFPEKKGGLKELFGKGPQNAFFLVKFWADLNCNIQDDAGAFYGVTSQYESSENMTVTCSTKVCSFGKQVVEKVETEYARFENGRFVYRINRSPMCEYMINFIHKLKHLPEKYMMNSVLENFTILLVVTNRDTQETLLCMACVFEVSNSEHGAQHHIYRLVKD

O=C(Nc1ccccc1)N1CCN(C(=O)c2cccc(OCCC3CCCCC3)c2)CC1 [TM2, 4-(3-(2-cyclohexylethoxy)benzoyl)-N-phenylpiperazine-1-carboxamide]
Myc-TEAD1 palmitoylation in cells (in words) (Myc-TEAD1): dramatically suppresses | expression level of CTGF and ANKDR1 (in words) ([1]; H226, 24 and 48 h): significantly suppressed | expression of Cyr61 (in words) ([1]; H226, 48 h): strong response | block of YAP/TAZ-TEAD direct target genes (in words) [2]: more efficient to block YAP/TAZ-TEAD target genes relative to K975 | Ki67 positive cells in organoids (in words) [3]: significantly diminished | combination with MEK inhibitor trametinib, HCT116 (in words) (HCT116 cells [4]): strong inhibitory effects and substantial synergy | combination with MEK inhibitor trametinib, DLD1 (in words) (DLD1 cells [5]): strong inhibitory effects and substantial synergy | DHODH(H):(GI50 μM/1,10 μM) (DHODH(H)): 5/6/15 | GI50 (H226): 73 nM | HCC95: value at 1 μM (HCC95; 1 μM): 37 | HCC95: value at 10 μM (HCC95; 10 μM): 65 | Met stab HLM, 15 min (Metabolic stability HLM; 15 min): 44% | Met stab HLM, 60 min (Metabolic stability HLM; 60 min): 6% | logD (logD 7.4): 4.6 | pIC50 (H226 cells): 7.59 | inhibition of DLD1 cell proliferation (in words) (DLD1 cells [6]): did not exhibit strong inhibition | inhibition of HCT116 cell proliferation (in words) (HCT116 cells [7]): did not exhibit strong inhibition | pIC50 (NCI-H2052 cells): 6.80
